Test results taken from patent US11440923B2, “Substituted macrocyclic indole derivatives” (Bayer Aktiengesellschaft, priority 2017, dated 2022).
Structures can show the parent of a compound that is named as a salt. Where two headings read alike, the source gives them in different places.

Tests used:
AMO-1 cells = assay: Antiproliferation assay AMO-1 (Assay 7); assay type: cell-based
Summary of the method: (§1)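 Cell proliferation was measured with CellTiter-Glo luminescence after 72 h compound exposure at 37 °C. A day 0 reference plate, read after overnight incubation, set the time-zero value. IC50s were calculated relative to day 0 (CI) and DMSO control (C0) values.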

HMC-1-8 cells = assay: Antiproliferation assay HMC-1-8 (Assay 7); assay type: cell-based; details: 72 h
Summary of the method: as §1

SUDHL10 cells = assay: Induction of caspase-3/7 activity in SUDHL10 cells (Assay 4); assay type: cell-based; details: caspase-3/7 induction, 3 h, read-out: Caspase SUDHL10 EC50 (median)
Summary of the method: (§2)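 Caspase-3/7 activity measured in DLBCL lines after 3 h compound exposure at 37 °C, following overnight plating; Caspase-Glo 3/7 luminescence read after 1 h at 37 °C. Medium-only background subtracted, values normalized to mean of DMSO-treated cells.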

BCL-XL = BCL-XL (Homo sapiens (Human), UniProt Q07817); assay: Protein-protein interaction assay BCL-XL/Bad BH3 peptide (BCL-XL assay, TR-FRET); assay type: binding; details: read-out: BCL-XL Assay IC50 (median)
Chain of BCL-XL (Q07817 1-212): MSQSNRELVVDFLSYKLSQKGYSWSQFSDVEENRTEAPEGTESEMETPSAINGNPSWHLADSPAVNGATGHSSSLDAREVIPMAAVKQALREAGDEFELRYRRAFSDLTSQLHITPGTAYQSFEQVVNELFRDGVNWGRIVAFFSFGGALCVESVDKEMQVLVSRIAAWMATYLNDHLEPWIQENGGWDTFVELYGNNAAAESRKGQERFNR
Summary of the method: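 Human BCL-XL (aa 1-212, C-terminal His6, E. coli) at 1 nM end concentration, preincubated 10 min at 22 °C with compound (11 concentrations, 0.1 nM–20 μM, duplicates), then biotinylated Bad BH3 peptide (1 nM) added with anti-His-Eu cryptate/streptavidin-XL665. Incubation 1 h at 22 °C then overnight at 4 °C; TR-FRET 665/620 ratio, IC50 from 4-parameter fit.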

SUDHL5 cells [1] = assay: Antiproliferation assay SUDHL5 (Assay 7); assay type: cell-based
Summary of the method: as §1

SUDHL5 cells [2] = assay: Induction of caspase-3/7 activity in SUDHL5 cells (Assay 4); assay type: cell-based; details: caspase-3/7 induction, 3 h, read-out: Caspase SUDHL5 EC50 (median)
Summary of the method: as §2

[3] = Homo sapiens, AMO1, 72 h, 72 h, CellTiter-Glo, read-out: Antiproli AMO-1 IC50 median
[4] = CellTiter-Glo, read-out: Antiproli HMC-1-8 IC50 median
[5] = Homo sapiens, SU-DHL-5, 72 h, 72 h, CellTiter-Glo, read-out: Antiproli SUDHL5 IC50 (median)
[6] = read-out: Antiproli AMO-1 IC50 median, 72 h, CellTiter-Glo
[7] = read-out: Antiproli HMC-1-8 IC50 median, CellTiter-Glo
[8] = read-out: Antiproli SUDHL5 IC50 (median), 72 h, CellTiter-Glo

Row | SMILES | EC50 (SUDHL10 cells; Homo sapiens, SU-DHL10, 3 h) [nM] | IC50 (BCL-XL) [nM] | IC50 (SUDHL5 cells [1]; [5]) [nM] | EC50 (SUDHL5 cells [2]; Homo sapiens, SU-DHL-5, 3 h) [nM] | EC50 (SUDHL10 cells) [nM] | EC50 (SUDHL5 cells [2]) [nM] | IC50 (SUDHL5 cells [1]; Homo sapiens, SU-DHL-5, 72 h, read-out: Antiproli SUDHL5 IC50 (median), 72 h, CellTiter-Glo) [nM] | IC50 (AMO-1 cells; [3]) [nM] | IC50 (HMC-1-8 cells; [4]) [nM] | IC50 (AMO-1 cells; [6]) [nM] | IC50 (HMC-1-8 cells; [7]) [nM] | IC50 (SUDHL5 cells [1]; [8]) [nM] | IC50 (AMO-1 cells; Homo sapiens, AMO1, 72 h, read-out: Antiproli AMO-1 IC50 median, 72 h, CellTiter-Glo) [nM] | IC50 (HMC-1-8 cells; read-out: Antiproli HMC-1-8 IC50 median, 72 h, CellTiter-Glo) [nM]
1 | CCc1c2c(nn1C)C(CCN1CCC(F)(F)C1)OCCCCn1c(C(=O)O)c(CCCOc3cccc4cc(F)ccc34)c3ccc(Cl)c-2c31 (single isomer, unassigned; enantiomer 2) [Example 57, 4-chloro-15-[2-(3,3-difluoropyrrolidin-1-yl)ethyl]-3-ethyl-7-{3-[(6-fluoronaphthalen-1-yl)oxy]propyl}-2-methyl-2,10,11,12,13,15-hexahydropyrazolo[4′,3′:9,10][1,6]oxazacycloundecino[8,7,6-hi]indole-8-carboxylic Acid N-ethylethanamine Salt (Enantiomer 2)] |  | > 20000 |  |  | 7700 | 7400 |  |  |  | 4520 | 13600 | 8700 |  | 
2 | CCc1c2c(nn1C)C(c1ccccc1)OCCCCn1c(C(=O)O)c(CCCOc3cccc4cc(F)ccc34)c3ccc(Cl)c-2c31 (racemic) [Example 59, (rac)-4-chloro-3-ethyl-7-{3-[(6-fluoronaphthalen-1-yl)oxy]propyl}-2-methyl-(15-rac)-phenyl-2,10,11,12,13,15-hexahydropyrazolo[4′,3′:9,10][1,6]oxazacycloundecino[8,7,6-hi]indole-8-carboxylic Acid] | 570 | > 20000 | 5100 | 430 |  |  |  | 753 | 3410 |  |  |  |  | 
3 | CCc1c2c(nn1C)C(CCC1CCOCC1)OCCCCn1c(C(=O)O)c(CCCOc3cccc4cc(F)ccc34)c3ccc(Cl)c-2c31 (racemic) [Example 60, (rac)-4-chloro-3-ethyl-7-{3-[(6-fluoronaphthalen-1-yl)oxy]propyl}-2-methyl-(15-rac)-[2-(oxan-4-yl)ethyl]-2,10,11,12,13,15-hexahydropyrazolo[4′,3′:9,10][1,6]oxazacycloundecino[8,7,6-hi]indole-8-carboxylic Acid] | 77 | 15400 | 65 | 50 |  |  |  | 92.9 | 951 |  |  |  |  | 
4 | CCc1c2c(nn1C)C(C1CC1)OCCCCn1c(C(=O)O)c(CCCOc3cccc4cc(F)ccc34)c3ccc(Cl)c-2c31 (single isomer, unassigned; enantiomer 1) [Example 39, (+)-4-chloro-15-cyclopropyl-3-ethyl-7-{3-[(6-fluoronaphthalen-1-yl)oxy]propyl}-2-methyl-2,10,11,12,13,15-hexahydropyrazolo[4′,3′:9,10][1,6]oxazacycloundecino[8,7,6-hi]indole-8-carboxylic Acid—N-ethylethanamine Salt (Enantiomer 1)] |  | 18100 |  |  | 1500 | 750 | 880 |  |  |  |  |  | 4940 | 12300
5 | CCc1c2c(nn1C)C(CCOC)OCCCCn1c(C(=O)O)c(CCCOc3cccc4cc(F)ccc34)c3ccc(Cl)c-2c31 (racemic) [Example 41, (rac)-4-chloro-3-ethyl-7-{3-[(6-fluoronaphthalen-1-yl)oxy]propyl}-(15-rac)-(2-methoxyethyl)-2-methyl-2,10,11,12,13,15-hexahydropyrazolo[4′,3′:9,10][1,6]oxazacycloundecino[8,7,6-hi]indole-8-carboxylic Acid] | 130 | 15000 | 160 | 97 |  |  |  | 135 | 1310 |  |  |  |  | 
6 | Cc1c2c(nn1C)C(CCN1CCOCC1)OCCCCn1c(C(=O)O)c(CCCOc3cccc4cc(F)ccc34)c3ccc(F)c-2c31 (single isomer, unassigned; enantiomer 2) [Example 21, 4-fluoro-7-{3-[(6-fluoronaphthalen-1-yl)oxy]propyl}-2,3-dimethyl-15-[2-(morpholin-4-yl)ethyl]-2,10,11,12,13,15-hexahydropyrazolo[4′,3′:9,10][1,6]oxazacycloundecino[8,7,6-hi]indole-8-carboxylic Acid (Enantiomer 2)] | 13000 | > 20000 | 3400 | 11000 |  |  |  | > 33000 | 13300 |  |  |  |  | 
7 | Cc1c2c(nn1C)C(CCN1CCOCC1)OCCCCn1c(C(=O)O)c(CCCOc3cccc4cc(F)ccc34)c3ccc(Cl)c-2c31 (racemic) [Example 16, (rac)-4-chloro-7-{3-[(6-fluoronaphthalen-1-yl)oxy]propyl}-2,3-dimethyl-15-[2-(morpholin-4-yl)ethyl]-2,10,11,12,13,15-hexahydropyrazolo[4′,3′:9,10][1,6]oxazacycloundecino[8,7,6-hi]indole-8-carboxylic Acid] | 19 | > 20000 | 19 | 6.8 |  |  |  | 48.3 | 322 |  |  |  |  | 
8 | CCc1c2c(nn1C)C(CCN1CCOCC1)OCCCCn1c(C(=O)O)c(CCCOc3cccc4cc(F)ccc34)c3ccc(F)c-2c31 (racemic) [Example 49, (rac)-3-Ethyl-4-fluoro-7-{3-[(6-fluoronaphthalen-1-yl)oxy]propyl}-2-methyl-(15-rac)-[2-(morpholin-4-yl)ethyl]-2,10,11,12,13,15-hexahydropyrazolo[4′,3′:9,10][1,6]oxazacycloundecino[8,7,6-hi]indole-8-carboxylic Acid] | 21 | > 20000 | 42 | 33 |  |  |  | 76.7 | 1060 |  |  |  |  | 

Continued, in another order:

Row | EC50 (SUDHL10 cells; Homo sapiens, SU-DHL10, 3 h) [nM] | IC50 (BCL-XL) [nM] | IC50 (SUDHL5 cells [1]; [5]) [nM] | EC50 (SUDHL5 cells [2]; Homo sapiens, SU-DHL-5, 3 h) [nM] | EC50 (SUDHL10 cells) [nM] | EC50 (SUDHL5 cells [2]) [nM] | IC50 (SUDHL5 cells [1]; Homo sapiens, SU-DHL-5, 72 h, read-out: Antiproli SUDHL5 IC50 (median), 72 h, CellTiter-Glo) [nM] | SMILES | IC50 (AMO-1 cells; [3]) [nM] | IC50 (HMC-1-8 cells; [4]) [nM] | IC50 (AMO-1 cells; [6]) [nM] | IC50 (HMC-1-8 cells; [7]) [nM] | IC50 (SUDHL5 cells [1]; [8]) [nM] | IC50 (AMO-1 cells; Homo sapiens, AMO1, 72 h, read-out: Antiproli AMO-1 IC50 median, 72 h, CellTiter-Glo) [nM] | IC50 (HMC-1-8 cells; read-out: Antiproli HMC-1-8 IC50 median, 72 h, CellTiter-Glo) [nM]
9 | 160 | 14700 | 400 | 420 |  |  |  | CCc1c2c(nn1C)C(CC(C)(C)O)OCCCCn1c(C(=O)O)c(CCCOc3cccc4cc(F)ccc34)c3ccc(Cl)c-2c31 (racemic) [Example 52, (rac)-4-chloro-3-ethyl-7-{3-[(6-fluoronaphthalen-1-yl)oxy]propyl}-(15-rac)-(2-hydroxy-2-methylpropyl)-2-methyl-2,10,11,12,13,15-hexahydropyrazolo[4′,3′:9,10][1,6]oxazacycloundecino[8,7,6-hi]indole-8-carboxylic Acid] | 107 | 3190 |  |  |  |  | 
10 |  | 14300 |  |  | 14000 | 6500 |  | CCc1c2c(nn1C)C(CC(C)(C)O)OCCCCn1c(C(=O)O)c(CCCOc3cccc4cc(F)ccc34)c3ccc(Cl)c-2c31 (single isomer, unassigned; enantiomer 21) [Example 54, (−)-4-chloro-3-ethyl-7-{3-[(6-fluoronaphthalen-1-yl)oxy]propyl}-15-(2-hydroxy-2-methylpropyl)-2-methyl-2,10,11,12,13,15-hexahydropyrazolo[4′,3′:9,10][1,6]oxazacycloundecino[8,7,6-hi]indole-8-carboxylic Acid—N-ethylethanamine Salt (Enantiomer 21] |  |  | 27800 | 20200 | 13000 |  | 
11 | 6600 | > 20000 | 170 | 3200 |  |  |  | CCc1c2c(nn1C)C(C(F)(F)F)OCCCCn1c(C(=O)O)c(CCCOc3cccc4ccccc34)c3ccc(Cl)c-2c31 (racemic) [Example 27, (rac)-4-Chloro-3-ethyl-2-methyl-7-{3-[(naphthalen-1-yl)oxy]propyl}-15-(trifluoromethyl)-2,10,11,12,13,15-hexahydropyrazolo[4′,3′:9,10][1,6]oxazacycloundecino[8,7,6-hi]indole-8-carboxylic Acid] | 12100 | 20700 |  |  |  |  | 
12 | 980 | > 20000 | 410 | 120 |  |  |  | Cc1c2c(nn1C)C(CCO)OCCCCn1c(C(=O)O)c(CCCOc3cccc4ccccc34)c3ccc(Cl)c-2c31 (racemic) [Example 26, (rac)-4-chloro-15-(2-hydroxyethyl)-2,3-dimethyl-7-{3-[(naphthalen-1-yl)oxy]propyl}-2,10,11,12,13,15-hexahydropyrazolo[4′,3′:9,10][1,6]oxazacycloundecino[8,7,6-hi]indole-8-carboxylic Acid] | 577 | 6780 |  |  |  |  | 
13 | 210 | 17100 | 510 | 250 |  |  |  | COCCC1OCCCCn2c(C(=O)O)c(CCCOc3cccc4ccccc34)c3ccc(Cl)c(c32)-c2c1nn(C)c2C (racemic) [Example 37, (rac)-4-chloro-(15-rac)-(2-methoxyethyl)-2,3-dimethyl-7-{3-[(naphthalen-1-yl)oxy]propyl}-2,10,11,12,13,15-hexahydropyrazolo[4′,3′:9,10][1,6]oxazacycloundecino[8,7,6-hi]indole-8-carboxylic Acid] | 536 | 7450 |  |  |  |  | 
